Key:
[1] = Fecal vancomycin levels in original clinical stool samples of healthy volunteers, HPLC-PDA at 205 nm; type: in vivo, human; details: for Vancomycin concn, Aliquot 3 / Vancomycin concn, Aliquot 2: original stool
Experimental: (§1) An aliquot of stool and 1 mL of extraction solvent (acetonitrile and water, 10:90 [vol/vol], 0.1% TFA) was added into 2-mL centrifuge tube and shaken (Vortex-Genie 2 Shaker, Scientific Industries, USA) for 10 s, ultrasonicated for 5 min (Multool ultrasonic cleaner, Model: TH-030A), and centrifuged at 10,000 g for 3 min (Centrifuge 5804 R, Eppendorf). The supernatant was collected and diluted by 10-fold using the extraction solvent and was stored at −80°C prior to HPLC analysis.
(§2) The mobile phase consisted of a mixture of acetonitrile and water, (10:90 [v:v], 0.1% TFA). The flow rate and the temperature of column oven were set at 0.3 mL/min and 40°C, respectively.
(§3) Differences in concentrations were compared by RSD.

[2] = Fecal vancomycin levels in lyophilized clinical stool samples, HPLC, with water correction; type: in vivo, human
Experimental: as §1, §2, §3

[3] = Vancomycin stability in clinical stool samples over time (inter-day); type: in vitro ADME, human; details: for Day 0, vancomycin concn: first assay; for Day 0, vancomycin concn / Day 48, vancomycin concn: Mean ± SD, identical aliquots n = 3, SD; for Day 48, vancomycin concn: second assay after storage
Experimental: as §1, §2, §3

[4] = Comparison with orthophosphoric acid-based extraction method (Berthoin et al. 2009), total fecal vancomycin by HPLC; type: in vivo, human
Experimental: Briefly, six samples were chosen with two aliquots were prepared for each sample. The aliquots were mixed with 971 μL of water and 29 μL of 85% orthophosphoric acid according to the composition of orthophosphoric acid-based extraction solvent developed by Berthoin et al. (2009) ([17]).

[5] = cited from earlier work
Text: The goal of the human microbiome project (HMP) is to characterize the human microbiome and analyze its role in health and disease ([1]). The HMP has advanced science on the systems biology of the gut microbiome, the most diverse and abundant microbiome in the human body. By far, the largest contributor to immediate changes in the human gut microbiome are broad spectrum antimicrobials that are excreted via the gastrointestinal tract. To be able to properly study the effect of antimicrobials on the gut microbiome, pharmacokinetic studies using validated assays in the correct biologic matrix will ... || During the phase I clinical trial mentioned above, the pharmacokinetics of ibezapolstat was evaluated using a commercial laboratory. They required the entire stool in order to homogenize the sample for accurate pharmacokinetics results as the heterogeneity of antibiotics in stool samples has not been studied. This differs from blood, urine, or other matrices in which an almost constant supply is present. However, as bowl movements only occur once per day or less, use of an entire sample for pharmacokinetic analyses excludes other microbiome evaluations from that particular day or time-period. ...

[6] = cited from earlier work; remark: listed apart in the source
Text: The goal of the human microbiome project (HMP) is to characterize the human microbiome and analyze its role in health and disease ([1]). The HMP has advanced science on the systems biology of the gut microbiome, the most diverse and abundant microbiome in the human body. By far, the largest contributor to immediate changes in the human gut microbiome are broad spectrum antimicrobials that are excreted via the gastrointestinal tract. […] Moreover, the quantitative range of our new method ( ...

CN[C@H](CC(C)C)C(=O)N[C@H]1C(=O)N[C@@H](CC(N)=O)C(=O)N[C@H]2C(=O)N[C@H]3C(=O)N[C@H](C(=O)N[C@H](C(=O)O)c4cc(O)cc(O)c4-c4cc3ccc4O)[C@H](O)c3ccc(c(Cl)c3)Oc3cc2cc(c3O[C@@H]2O[C@H](CO)[C@@H](O)[C@H](O)[C@H]2O[C@H]2C[C@](C)(N)[C@H](O)[C@H](C)O2)Oc2ccc(cc2Cl)[C@H]1O [vancomycin]
persistence of vancomycin in stool after end of dosing (in words) ([1]; healthy volunteers, oral 125 mg 4 times daily for 10 days): persists for several days following the end of the 10-day dosing regimen
vancomycin concentration in the diluted fecal extract solution ([1]; original clinical sample 9, fecal extract diluted by 10-fold, 205 nm): 20.1 µg/mL
Vancomycin concn, Aliquot 3 ([1]; sample 5, subject H, day 5, oral 125 mg 4 times daily for 10 days, wet wt 33.0 mg): 259 (33.0) μg/g
Vancomycin concn, Aliquot 2 ([1]; sample 5, subject H, day 5, oral 125 mg 4 times daily for 10 days, wet wt 52.9 mg): 259 (52.9) μg/g
Vancomycin concn, Aliquot 2 ([1]; sample 6, subject E, day 8, oral 125 mg 4 times daily for 10 days, wet wt 40.7 mg): 2033 (40.7) μg/g
Vancomycin concn, Aliquot 3 ([1]; sample 6, subject E, day 8, oral 125 mg 4 times daily for 10 days, wet wt 106.5 mg): 1660 (106.5) μg/g
Vancomycin concn, Aliquot 3 ([1]; sample 7, subject F, day 8, oral 125 mg 4 times daily for 10 days, wet wt 48.1 mg): 2057 (48.1) μg/g
Vancomycin concn, Aliquot 2 ([1]; sample 7, subject F, day 8, oral 125 mg 4 times daily for 10 days, wet wt 55.7 mg): 1877 (55.7) μg/g
Vancomycin concn, Aliquot 3 ([1]; sample 8, subject E, day 9, oral 125 mg 4 times daily for 10 days, wet wt 61.5 mg): 1920 (61.5) μg/g
Vancomycin concn, Aliquot 2 ([1]; sample 8, subject E, day 9, oral 125 mg 4 times daily for 10 days, wet wt 91.7 mg): 1868 (91.7) μg/g
Vancomycin concn, Aliquot 2 ([1]; sample 9, subject F, day 9, oral 125 mg 4 times daily for 10 days, wet wt 68.4 mg): 1964 (68.4) μg/g
Vancomycin concn, Aliquot 3 ([1]; sample 9, subject F, day 9, oral 125 mg 4 times daily for 10 days, wet wt 80.2 mg): 1973 (80.2) μg/g
Vancomycin concn, Aliquot 2 ([1]; sample 10, subject D, day 10, oral 125 mg 4 times daily for 10 days, wet wt 34.7 mg): 1947 (34.7) μg/g
Vancomycin concn, Aliquot 3 ([1]; sample 10, subject D, day 10, oral 125 mg 4 times daily for 10 days, wet wt 57.0 mg): 1775 (57.0) μg/g
Vancomycin concn, Aliquot 2 ([1]; sample 11, subject D, day 11, oral 125 mg 4 times daily for 10 days, wet wt 62.7 mg): 1801 (62.7) μg/g
Vancomycin concn, Aliquot 3 ([1]; sample 11, subject D, day 11, oral 125 mg 4 times daily for 10 days, wet wt 64.0 mg): 1891 (64.0) μg/g
Vancomycin concn, Aliquot 2 ([1]; sample 12, subject F, day 11, oral 125 mg 4 times daily for 10 days, wet wt 47 mg): 1920 (47) μg/g
Vancomycin concn, Aliquot 3 ([1]; sample 12, subject F, day 11, oral 125 mg 4 times daily for 10 days, wet wt 54.2 mg): 1488 (54.2) μg/g
Vancomycin concn, Aliquot 2 ([1]; sample 14, subject F, day 12, oral 125 mg 4 times daily for 10 days, wet wt 60.8 mg): 1162 (60.8) μg/g
Vancomycin concn, Aliquot 3 ([1]; sample 14, subject F, day 12, oral 125 mg 4 times daily for 10 days, wet wt 74.6 mg): 1070 (74.6) μg/g
Vancomycin concn, Aliquot 3 ([1]; sample 15, subject D, day 12, oral 125 mg 4 times daily for 10 days, wet wt 59.4 mg): 1200 (59.4) μg/g
Vancomycin concn, Aliquot 2 ([1]; sample 15, subject D, day 12, oral 125 mg 4 times daily for 10 days, wet wt 90.1 mg): 1111 (90.1) μg/g
Lyophilized samples, Vanco conc ([2]; sample 6, subject E, day 8, oral 125 mg 4 times daily for 10 days, aliquot 1, wt 31 mg): 9,206 μg/g
Lyophilized samples, Vanco conc ([2]; sample 6, subject E, day 8, oral 125 mg 4 times daily for 10 days, aliquot 2, wt 58.2 mg): 10,109 μg/g
Lyophilized samples, Vanco conc, Mean ([2]; sample 6, subject E, day 8, oral 125 mg 4 times daily for 10 days, mean of 2 aliquots): 9,658 μg/g
Lyophilized samples, Vanco conc ([2]; sample 7, subject F, day 8, oral 125 mg 4 times daily for 10 days, aliquot 1, wt 44.6 mg): 8,614 μg/g
Lyophilized samples, Vanco conc ([2]; sample 7, subject F, day 8, oral 125 mg 4 times daily for 10 days, aliquot 2, wt 28.2 mg): 9,367 μg/g
Lyophilized samples, Vanco conc, Mean ([2]; sample 7, subject F, day 8, oral 125 mg 4 times daily for 10 days, mean of 2 aliquots): 8,991 μg/g
Lyophilized samples, Vanco conc ([2]; sample 8, subject E, day 9, oral 125 mg 4 times daily for 10 days, aliquot 1, wt 28.7 mg): 10,116 μg/g
Lyophilized samples, Vanco conc ([2]; sample 8, subject E, day 9, oral 125 mg 4 times daily for 10 days, aliquot 2, wt 39.4 mg): 9,445 μg/g
Lyophilized samples, Vanco conc, Mean ([2]; sample 8, subject E, day 9, oral 125 mg 4 times daily for 10 days, mean of 2 aliquots): 9,781 μg/g
Lyophilized samples, Vanco conc ([2]; sample 9, subject F, day 9, oral 125 mg 4 times daily for 10 days, aliquot 1, wt 26.7 mg): 9,745 μg/g
Lyophilized samples, Vanco conc ([2]; sample 9, subject F, day 9, oral 125 mg 4 times daily for 10 days, aliquot 2, wt 43.3 mg): 8,981 μg/g
Lyophilized samples, Vanco conc ([2]; sample 9, subject F, day 9, oral 125 mg 4 times daily for 10 days, aliquot 3, wt 60.8 mg): 8,935 μg/g
Lyophilized samples, Vanco conc, Mean ([2]; sample 9, subject F, day 9, oral 125 mg 4 times daily for 10 days, mean of 3 aliquots): 9,220 μg/g
Lyophilized samples, Vanco conc ([2]; sample 10, subject D, day 10, oral 125 mg 4 times daily for 10 days, aliquot 1, wt 41.2 mg): 7,501 μg/g
Lyophilized samples, Vanco conc ([2]; sample 10, subject D, day 10, oral 125 mg 4 times daily for 10 days, aliquot 2, wt 75.3 mg): 6,911 μg/g
Lyophilized samples, Vanco conc, Mean ([2]; sample 10, subject D, day 10, oral 125 mg 4 times daily for 10 days, mean of 2 aliquots): 7,206 μg/g
Lyophilized samples, Vanco conc ([2]; sample 11, subject D, day 11, oral 125 mg 4 times daily for 10 days, aliquot 1, wt 51.9 mg): 7,688 μg/g
Lyophilized samples, Vanco conc ([2]; sample 11, subject D, day 11, oral 125 mg 4 times daily for 10 days, aliquot 2, wt 36.8 mg): 8,166 μg/g
Lyophilized samples, Vanco conc ([2]; sample 11, subject D, day 11, oral 125 mg 4 times daily for 10 days, aliquot 3, wt 30 mg): 6,457 μg/g
Lyophilized samples, Vanco conc, Mean ([2]; sample 11, subject D, day 11, oral 125 mg 4 times daily for 10 days, mean of 3 aliquots): 7,437 μg/g
Lyophilized samples, Vanco conc ([2]; sample 12, subject F, day 11, oral 125 mg 4 times daily for 10 days, aliquot 1, wt 12.7 mg): 9,026 μg/g
Lyophilized samples, Vanco conc ([2]; sample 12, subject F, day 11, oral 125 mg 4 times daily for 10 days, aliquot 2, wt 32.6 mg): 8,563 μg/g
Lyophilized samples, Vanco conc ([2]; sample 12, subject F, day 11, oral 125 mg 4 times daily for 10 days, aliquot 3, wt 49.2 mg): 6,962 μg/g
Lyophilized samples, Vanco conc, Mean ([2]; sample 12, subject F, day 11, oral 125 mg 4 times daily for 10 days, mean of 3 aliquots): 8,184 μg/g
Lyophilized samples, Vanco conc ([2]; sample 14, subject F, day 12, oral 125 mg 4 times daily for 10 days, aliquot 1, wt 19 mg): 6,748 μg/g
Lyophilized samples, Vanco conc ([2]; sample 14, subject F, day 12, oral 125 mg 4 times daily for 10 days, aliquot 2, wt 37.1 mg): 5,810 μg/g
Lyophilized samples, Vanco conc ([2]; sample 14, subject F, day 12, oral 125 mg 4 times daily for 10 days, aliquot 3, wt 56.2 mg): 5,803 μg/g
Lyophilized samples, Vanco conc, Mean ([2]; sample 14, subject F, day 12, oral 125 mg 4 times daily for 10 days, mean of 3 aliquots): 6,120 μg/g
Lyophilized samples, Vanco conc ([2]; sample 15, subject D, day 12, oral 125 mg 4 times daily for 10 days, aliquot 1, wt 41.6 mg): 5,058 μg/g
Lyophilized samples, Vanco conc ([2]; sample 15, subject D, day 12, oral 125 mg 4 times daily for 10 days, aliquot 2, wt 38.5 mg): 4,941 μg/g
Lyophilized samples, Vanco conc ([2]; sample 15, subject D, day 12, oral 125 mg 4 times daily for 10 days, aliquot 3, wt 44.1 mg): 4,921 μg/g
Lyophilized samples, Vanco conc, Mean ([2]; sample 15, subject D, day 12, oral 125 mg 4 times daily for 10 days, mean of 3 aliquots): 4,973 μg/g
Day 0, vancomycin concn ([3]; clinical stool sample 5): 269 ± 3 µg/g
Day 48, vancomycin concn ([3]; clinical stool sample 5): 259 ± 14 µg/g
Day 0, vancomycin concn ([3]; clinical stool sample 9): 1,897 ± 7 μg/g
Day 48, vancomycin concn ([3]; clinical stool sample 9): 1,905 ± 12 μg/g
Day 0, vancomycin concn ([3]; clinical stool sample 14): 1,211 ± 8 μg/g
Day 48, vancomycin concn ([3]; clinical stool sample 14): 1,220 ± 11 μg/g
stability of vancomycin concentrations in stool over time ([3]; clinical stool samples, up to 49 days studied): stable over time up to 49 days
Fecal vancomycin concentration (Mean ± SD), Previous method ([4]; clinical sample 5, two aliquots): 267 ± 45 µg/mL
Fecal vancomycin concentration (Mean ± SD), Previous method ([4]; clinical sample 6, two aliquots): 2,045±100 µg/ml
Fecal vancomycin concentration (Mean ± SD), Previous method ([4]; clinical sample 8, two aliquots): 2,110±23 µg/ml
Fecal vancomycin concentration (Mean ± SD), Previous method ([4]; clinical sample 9, two aliquots): 2,106±33 µg/ml
Fecal vancomycin concentration (Mean ± SD), Previous method ([4]; clinical sample 12, two aliquots): 1,771±11 µg/ml
Fecal vancomycin concentration (Mean ± SD), Previous method ([4]; clinical sample 14, two aliquots): 1,253±47 µg/ml
water solubility (in words) [5]: water-soluble
hydrophilicity (in words) ([5]; general statement of the discussion, no reference given): hydrophilic drug
typical fecal vancomycin level after standard oral vancomycin administration [6]: > 100 µg/mL
absorption from the human gastrointestinal (GI) tract (in words) ([6]; oral, mainly excreted into the stool): absorbed minimally

— publication PMC9241942 (Microbiology Spectrum, 2022)
